What was measured:
Assay type in all cases: cell-based
[1] = test system: NCI-H522; experiment: NCI-60 screen; details: Homo sapiens, Non-Small-Cell Lung Cancer
Text: (§1) on the full NCI-60 panel comprising cancer cell lines derived from nine human cancer cell types (leukemia, non-small-cell lung, colon, central nervous system, melanoma, ovarian, renal, prostate, and breast).[50]

[2] = test system: OVCAR-3; experiment: NCI-60 screen; details: Homo sapiens, Ovarian Cancer
Text: as §1

[3] = test system: KM12; experiment: NCI-60 screen; details: Homo sapiens, Colon Cancer
Text: as §1

[4] = test system: LOX IMVI; experiment: NCI-60 screen; details: Homo sapiens, Melanoma
Text: as §1

[5] = test system: VL51 ibrutinib-resistant; experiment: MTT cell proliferation, lymphoma; details: Homo sapiens, 72 h, of untreated cells, read-out: Proliferating cells (%)
Method in brief: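 Lymphoma lines in RPMI-1640 with 10% FBS seeded at 1 × 10^5 cells/mL and treated with 1 μM, or in triplicate with serial dilutions over 40–10 000 nM, for 72 h at 37 °C, 5% CO2. Viability by MTT (4 h), SDS lysis, absorbance at 570 nm with medium-only blanks.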

[6] = test system: CAKI-1; experiment: NCI-60 screen; details: Homo sapiens, Renal Cancer
Experimental: as §1, with “All the synthesized compounds 51–76 were tested at a 10^–5 M concentration for their antitumor activity on the” for “on the”

[7] = test system: UACC-62; experiment: NCI-60 screen; details: Homo sapiens, Melanoma
Experimental: as §1, with “All the synthesized compounds 51–76 were tested at a 10^–5 M concentration for their antitumor activity on the” for “on the”

[8] = test system: NCI-H460; experiment: NCI-60 screen; details: Homo sapiens, Non-Small-Cell Lung Cancer
Experimental: as §1, with “All the synthesized compounds 51–76 were tested at a 10^–5 M concentration for their antitumor activity on the” for “on the”

[9] = test system: RPMI-8226; experiment: NCI-60 screen; details: Homo sapiens, Leukemia
Experimental: as §1, with “All the synthesized compounds 51–76 were tested at a 10^–5 M concentration for their antitumor activity on the” for “on the”

[10] = test system: CCRF-CEM; experiment: NCI-60 screen; details: Homo sapiens, Leukemia
Experimental: as §1, with “All the synthesized compounds 51–76 were tested at a 10^–5 M concentration for their antitumor activity on the” for “on the”

[11] = test system: SF-268; experiment: NCI-60 screen; details: Homo sapiens, CNS Cancer
Experimental: as §1, with “All the synthesized compounds 51–76 were tested at a 10^–5 M concentration for their antitumor activity on the” for “on the”

[12] = test system: A498; experiment: NCI-60 screen; details: Homo sapiens, Renal Cancer
Experimental: as §1, with “All the synthesized compounds 51–76 were tested at a 10^–5 M concentration for their antitumor activity on the” for “on the”

[13] = test system: ACHN; experiment: NCI-60 screen; details: Homo sapiens, Renal Cancer
Experimental: as §1, with “All the synthesized compounds 51–76 were tested at a 10^–5 M concentration for their antitumor activity on the” for “on the”

[14] = test system: HCT-116; experiment: NCI-60 screen; details: Homo sapiens, Colon Cancer
Experimental: as §1, with “All the synthesized compounds 51–76 were tested at a 10^–5 M concentration for their antitumor activity on the” for “on the”

[15] = test system: NCI/ADR-RES; experiment: NCI-60 screen; details: Homo sapiens, Ovarian Cancer
Experimental: as §1, with “All the synthesized compounds 51–76 were tested at a 10^–5 M concentration for their antitumor activity on the” for “on the”

[16] = test system: PC-3; experiment: NCI-60 screen; details: Homo sapiens, Prostate Cancer
Experimental: as §1, with “All the synthesized compounds 51–76 were tested at a 10^–5 M concentration for their antitumor activity on the” for “on the”

[17] = test system: HL-60(TB); experiment: NCI-60 screen; details: Homo sapiens, Leukemia
Experimental: as §1, with “All the synthesized compounds 51–76 were tested at a 10^–5 M concentration for their antitumor activity on the” for “on the”

[18] = test system: SK-MEL-5; experiment: NCI-60 screen; details: Homo sapiens, Melanoma
Experimental: as §1, with “All the synthesized compounds 51–76 were tested at a 10^–5 M concentration for their antitumor activity on the” for “on the”

[19] = test system: MDA-MB-435; experiment: NCI-60 screen; details: Homo sapiens, Melanoma
Experimental: as §1, with “All the synthesized compounds 51–76 were tested at a 10^–5 M concentration for their antitumor activity on the” for “on the”

[20] = test system: SF-295; experiment: NCI-60 screen; details: Homo sapiens, CNS Cancer
Experimental: as §1, with “All the synthesized compounds 51–76 were tested at a 10^–5 M concentration for their antitumor activity on the” for “on the”

[21] = test system: SK-OV-3; experiment: NCI-60 screen; details: Homo sapiens, Ovarian Cancer
Experimental: as §1, with “All the synthesized compounds 51–76 were tested at a 10^–5 M concentration for their antitumor activity on the” for “on the”

[22] = test system: HCT-15; experiment: NCI-60 screen; details: Homo sapiens, Colon Cancer
Experimental: as §1, with “All the synthesized compounds 51–76 were tested at a 10^–5 M concentration for their antitumor activity on the” for “on the”

[23] = test system: M14; experiment: NCI-60 screen; details: Homo sapiens, Melanoma
Experimental: as §1, with “All the synthesized compounds 51–76 were tested at a 10^–5 M concentration for their antitumor activity on the” for “on the”

[24] = test system: MCF7; experiment: NCI-60 screen; details: Homo sapiens, Breast Cancer
Experimental: as §1, with “All the synthesized compounds 51–76 were tested at a 10^–5 M concentration for their antitumor activity on the” for “on the”

[25] = test system: MOLT-4; experiment: NCI-60 screen; details: Homo sapiens, Leukemia
Experimental: as §1, with “All the synthesized compounds 51–76 were tested at a 10^–5 M concentration for their antitumor activity on the” for “on the”

[26] = test system: NCI-H226; experiment: NCI-60 screen; details: Homo sapiens, Non-Small-Cell Lung Cancer
Experimental: as §1, with “All the synthesized compounds 51–76 were tested at a 10^–5 M concentration for their antitumor activity on the” for “on the”

[27] = test system: IGROV1; experiment: NCI-60 screen; details: Homo sapiens, IGROV-1; Ovarian Cancer
Experimental: as §1, with “All the synthesized compounds 51–76 were tested at a 10^–5 M concentration for their antitumor activity on the” for “on the”

[28] = test system: MDA-MB-231/ATCC; experiment: NCI-60 screen; details: Homo sapiens, Breast Cancer
Experimental: as §1, with “All the synthesized compounds 51–76 were tested at a 10^–5 M concentration for their antitumor activity on the” for “on the”

[29] = test system: SR; experiment: NCI-60 screen; details: Homo sapiens, Leukemia
Experimental: as §1, with “All the synthesized compounds 51–76 were tested at a 10^–5 M concentration for their antitumor activity on the” for “on the”

[30] = test system: K-562; experiment: NCI-60 screen; details: Homo sapiens, K562; Leukemia
Experimental: as §1, with “All the synthesized compounds 51–76 were tested at a 10^–5 M concentration for their antitumor activity on the” for “on the”

[31] = test system: DU-145; experiment: NCI-60 screen; details: Homo sapiens, Prostate Cancer
Experimental: as §1, with “All the synthesized compounds 51–76 were tested at a 10^–5 M concentration for their antitumor activity on the” for “on the”

[32] = test system: COLO 205; experiment: NCI-60 screen; details: Homo sapiens, Colon Cancer
Experimental: as §1, with “All the synthesized compounds 51–76 were tested at a 10^–5 M concentration for their antitumor activity on the” for “on the”

[33] = test system: TK-10; experiment: NCI-60 screen; details: Homo sapiens, Renal Cancer
Experimental: as §1, with “All the synthesized compounds 51–76 were tested at a 10^–5 M concentration for their antitumor activity on the” for “on the”

[34] = test system: HT29; experiment: NCI-60 screen; details: Homo sapiens, HT-29; Colon Cancer
Experimental: as §1, with “All the synthesized compounds 51–76 were tested at a 10^–5 M concentration for their antitumor activity on the” for “on the”

[35] = test system: SW-620; experiment: NCI-60 screen; details: Homo sapiens, Colon Cancer
Experimental: as §1, with “All the synthesized compounds 51–76 were tested at a 10^–5 M concentration for their antitumor activity on the” for “on the”

[36] = test system: SNB-19; experiment: NCI-60 screen; details: Homo sapiens, CNS Cancer
Experimental: as §1, with “All the synthesized compounds 51–76 were tested at a 10^–5 M concentration for their antitumor activity on the” for “on the”

CCOC(=O)c1c(Cl)c2c(n1Cc1cc(OC)cc(OC)c1)-c1oncc1CCC2 [Compound 75, Ethyl 7-Chloro-9-(3,5-dimethoxybenzyl)-4,5,6,9-tetrahydropyrrolo[2′,3′:3,4]cyclohepta[1,2-d][1,2]oxazole-8-carboxylate]
GI50 [1]: 30 nM | GI50 [2]: 190 nM | GI50 [3]: 320 nM | GI50 [4]: 880 nM | activity at 1 µM [5]: 40.8% | GI50 [6]: 280 nM | GI50 [7]: 110 nM | GI50 [8]: 350 nM | GI50 [9]: 390 nM | GI50 [10]: 250 nM | GI50 [11]: 1910 nM | GI50 [12]: 170 nM | GI50 [13]: 940 nM | GI50 [14]: 430 nM | GI50 [15]: 200 nM | GI50 [16]: 290 nM | GI50 [17]: 310 nM | GI50 [18]: 490 nM | GI50 [19]: 30 nM | GI50 [20]: 60 nM | GI50 [21]: 240 nM | GI50 [22]: 370 nM | GI50 [23]: 260 nM | GI50 [24]: 100 nM | GI50 [25]: 580 nM | GI50 [26]: 9.71 µM | GI50 [27]: 340 nM | GI50 [28]: 840 nM | GI50 [29]: 70 nM | GI50 [30]: 290 nM | GI50 [31]: 350 nM | GI50 [32]: 170 nM | GI50 [33]: 10.3 µM | GI50 [34]: 270 nM | GI50 [35]: 320 nM | GI50 [36]: 520 nM
